# From paper PMC2567432 (PLoS ONE, 2008)
# Entries after “also recorded” stand apart in the source; their conditions may differ.
# What was measured:
# [1] = tested on: IL-1β release from LPS-stimulated blood cells; assay: Whole blood assay, LPS-induced IL-1β release (cytometric bead array); assay type: cell-based; details: Homo sapiens; heparinized whole blood, LPS 10 ng/ml, 6 h, 37°C
# Experimental: Figure 2 Effect of polyphenols on IL-1β release from LPS-stimulated blood cells. Heparinized whole blood was stimulated by LPS in the absence or presence of polyphenols at increasing concentrations and incubated for 6 h at 37°C with 5% CO2. (A) Released IL-1β as measured in cell supernatants. Samples without additives but LPS were set at 100%. (B) The calculated […] values of the respective polyphenols. Data represent mean±S.D. of independent experiments (n = 6).
# Whole blood assay was performed as previously described. Accordingly, LPS (10 ng/ml), test substances and 200 µl heparinized human blood of healthy donors, obtained from the blood bank of the University of Leipzig, were co-incubated with serum-free medium (RPMI-SF, 1 ml final volume) in 24-well culture plates for 6 h at 37°C with 5% CO2. Samples were removed, centrifuged at 2000×g for 10 min and supernatants were stored at −20°C until assaying for inflammatory cytokines.
# Assessment of cytokine levels in supernatants of human blood cell cultures was accomplished using Cytometric Bead Array (CBA™, BD Biosciences, San Jose, U.S.A). The procedure was carried out according to the manufacturer's instruction. Fluorescence measurement and analysis were performed using a FACSCalibur and the CellQuest software (BD Biosciences).
# [2] = tested on: primary human hepatocytes; assay: Vitality of primary human hepatocytes (WST-1); assay type: cell-based; details: 24-h incubation, increasing concentrations
# Experimental: (§1) Apoptosis/necrosis was evaluated using annexin V-5-fluorescein isothiocyanate (FITC)/propidium iodine (PI) staining followed by flow cytometric analysis. […] The proportion of dead cells (a: annexin V-FITC^−/PI^+), late apoptotic/necrotic cells (b: annexin V-FITC^+/PI^+), non-apoptotic cells (c: annexin V-FITC^−/PI^−) and early apoptotic cells (d: annexin V-FITC^+/PI^−). (B) Results of 3 independent experiments. […] Data represent the mean±S.D. of three independent experiments.
# Primary human hepatocytes were isolated and cultivated in serum-free William Medium E [59]. Tissue samples from human liver resection were obtained from patients undergoing partial hepatectomy for metastatic liver tumor of colorectal cancer. Experimental procedures were performed according to the guidelines of the charitable state controlled foundation (Human Tissue and Cell Research), with the informed patient's consent approved by the local ethical committee.
# (§2) Cell proliferation/vitality of tumor cells (96-well plates; 5000 cells/well) and primary human hepatocytes (24-well plates; 0.25×10^6 cells/well) was assayed using the WST-1 assay according to manufacturer's instructions. Trypan blue exclusion was performed by staining cells with 0.4% aqueous trypan blue solution according to the manufacturer's instructions.
# JIMT-1 cells = assay: Glutathione (GSH) level in cytosolic extract, JIMT-1; assay type: cell-based, human; details: JIMT-1, 50 µM, 24 h
# Experimental: Cells were harvested and GSH concentration was determined in the cytosolic extract. Data represent the mean±S.D. of independent experiments (n = 6).
# GSH was determined using DTNB method. Briefly, cytosolic extract of tumor cells were precipitated by 5% sulfosalicylic acid neutralization, aliquots were mixed with DTNB and absorbance was read at 412 nm against a standard solution of GSH.
# Glo1 in JIMT-1 cells = assay: Glo1 protein content by Western blot; assay type: cell-based, human; details: JIMT-1, 24 h
# Experimental: Cells were harvested and the specific activity of Glo1 and LDH was determined in the cytosolic extract. (B) Semi-quantitative analysis of protein content as performed by Western blot using specific antibodies against β-actin and Glo1. The blot was developed by chemoluminescense detection. […] Data represent the mean±S.D. of independent experiments (n = 6).
# An amount of 20 µg to 40 µg of cytosolic extract was loaded to SDS-pore gradient gels (4 to 20%) and run under reducing conditions. Proteins were blotted to cellulose nitrate membranes (Whatman Schleicher & Schuell, Dassel, Germany) and Glo1 was detected by anti-Glo1 monoclonal antibodies (1 µg/ml) (BioMac, Leipzig, Germany) in combination with goat anti-mouse Ig-HRP (1∶1000) (Dako, Hamburg, Germany). For comparison, β-actin was analyzed using rabbit anti-β-actin Ig (1∶2000) (Acris, Hiddenhausen, Germany) in conjunction with HRP-labeled goat anti-rabbit Ig (Dianova, Hamburg, Germany). Band visualization was performed by chemiluminescence detection (Boehringer, Mannheim, Germany).
# astrocytoma 1321N1 cells [3] = assay: Apoptosis/necrosis by annexin V-FITC/PI staining, flow cytometry; assay type: cell-based; details: 24 h
# Experimental: as §1
# Samples were analyzed by flow cytometry using a FACSCalibur and the CellQuest software (BD Biosciences, San Jose, USA). Laser excitation wavelength was set at 488 nm. The green signal from annexin V-FITC was measured at 525 nm and the red signal from PI was measured at 620 nm. Annexin V^−/PI^− cells are viable; annexin V^+/PI^− cells are in early apoptosis, whereas annexin V^+/PI^+ cells are necrotic or in late apoptosis are […]
# [4] = tested on: prostate cancer PC-3 cells; assay: Cell proliferation WST-1 assay, PC-3; assay type: cell-based
# Experimental: Figure 3 Growth inhibition of different tumor cell lines by polyphenols. […] Following 24-h incubation, cell proliferation was evaluated using the WST-1 assay.
# Tumor cells were cultured in RPMI medium containing 10% fetal calf serum (RPMI-FCS) (PC-3, JIMT-1, MDA-MD 231) or in DMEM-FCS (astrocytoma 1321N1 cells) containing penicillin/streptomycin (100 U penicillin/ml; 100 µg streptomycin/ml) at 37°C/5% CO2. Cytosolic protein extracts of tumor cells were prepared using extraction buffer composed of 25 mM Tris, 2 mM EDTA, 10% Glycerol, 1% Triton ×100, 2 mM DTT, 1mM PMSF, pH. 7.0 containing 0.3% protease inhibitor cocktail. Protein content was determined according to Bradford. Specific activity of enzymes analyzed in cell extracts was expressed as U/mg protein.
# as §2
# LDH = LDH activity measurement, interference check; assay type: biochemical; details: spectrophotometric, 340 nm
# Experimental: LDH activity was spectrophotometrically assayed in the cytosolic extract or in the of cell cultures by adding aliquots to 1 ml reaction buffer (50 mM Na2HPO4, pH 7.0, 0.15 mM NADH, and 0.3 mM pyruvate). Enzyme activity was recorded at 340 nm.
# astrocytoma 1321N1 cells [5] = assay: Cellular ATP content (CellTiter-Glo), 1321N1; assay type: cell-based; details: 1321N1, 6 h; curcumin 0–100 µM, MGO 0–1000 µM
# Experimental: Cellular ATP content was determined using the CellTiter-Glo® Luminescent Cell Viability Assay. Data represent the mean±S.D. of independent experiments (n = 12).
# Cell ATP content was determined by means of the CellTiter-Glo® Luminescent Cell Viability Assay according to the manufacturer's instructions (Promega, Madison, USA). […] After 6-h incubation, cells were mixed with test reagents and luminescence was read according to the manufacturer's instructions. A standard curve was prepared from ATP (1 µM to 10 nM) in medium.
compound,measurement,setting,value
"COc1cc(C=CC(=O)CC(=O)C=Cc2ccc(O)c(OC)c2)ccc1O [curcumin, 1,7-bis(4-hydroxy-3-methoxyphenyl)-1,6-heptadiene-3,5-dione]",IC50,[1],7.9 µM
same,cell vitality of primary human hepatocytes,[2],no effect; also recorded: not affected
same,GSH diminished by,JIMT-1 cells,approximately 20%
same,Glo1 protein content (Western blot),Glo1 in JIMT-1 cells,no alteration
same,early apoptotic cells (annexin V-FITC+/PI−),astrocytoma 1321N1 cells [3]; 10 µM,11.0%
same,late apoptotic/necrotic cells (annexin V-FITC+/PI+),astrocytoma 1321N1 cells [3]; 50 µM,98.2%
same,effect on PC-3 cells at 100 µM,"[4]; 100 µM, 24 h, morphology lost, necrotic cell death",toxic effect
same,concentration giving strong anti-proliferative effects,"[4]; PC-3, 24 h, WST-1",above 50 µM
same,effect on LDH enzyme activity in the assay,LDH,not affected
same,cellular ATP content,astrocytoma 1321N1 cells [5],decreased cellular ATP in a concentration-dependent manner
